Assay results reported in US11104631B1, “Isopentenyl chalcone compound and preparation method thereof” (SOUTH CHINA BOTANICAL GARDEN, CHINESE ACADEMY OF SCIENCES, priority 2018, dated 2021).

Experiments:
[1] = DPPH radical scavenging assay; assay type: biochemical; conditions: 0.2 mM DPPH in ethanol, dark, room temperature, 30 minutes, absorbance at 517 nm; read-out: IC50 value against DPPH radicals
Description: DPPH is a stable free radical. When a free radical scavenger is present, light absorption of DPPH will be reduced when the single electron is scavenged, which allows to evaluate free radical scavenging ability of the substance and accordingly determine antioxidant ability thereof. The DPPH radical scavenging ability of the compound 2,2′,4,4′-tetrahydroxy-3′-(2″,3″-dihydroxy-3″-methylbutyl)chalcone was measured through the DPPH radical scavenging assay, so as to evaluate the antioxidant ability of the compound. The assay comprised the following steps: 1,1-Diphenyl-2-picrylhydrazyl (DPPH) was dissolved in absolute ethanol to obtain a solution with a concentration of 0.2 mM. The compound 2,2′,4,4′-tetrahydroxy-3′-(2″,3″-dihydroxy-3″-methylbutyl)chalcone was dissolved in absolute ethanol. 80 μL of the ethanol solution of 2,2′,4,4′-tetrahydroxy-3′-(2″,3″-dihydroxy-3″-methylbutyl)chalcone and 160 μL of the 0.2 mM DPPH ethanol solution were mixed and the mixture was placed in dark at room temperature for 30 minutes. Then, light absorbance at 517 nm was measured using a microplate reader (SpectraMax 190, Molecular Devices, USA), and Vc was employed as a positive control.

Solubility in methanol = assay type: physicochemical

IC50 [1] [µM]	solubility in methanol (Solubility in methanol)	Compound
100	–	O=C1O[C@H]([C@@H](O)CO)C(O)=C1O [Vc, vitamin C, reference compound]
27.6	easily soluble in methanol	CC(C)(O)C(O)Cc1c(O)ccc(C(=O)/C=C/c2ccc(O)cc2O)c1O (stereo not drawn) [compound 1, 2,2′,4,4′-tetrahydroxy-3′-(2″,3″-dihydroxy-3″-methylbutyl)chalcone]
